Experiments:
Details in all cases: 48 h
NOMO1 [1] = assay: AUC of viability dose-response curve (% viability x log10 dose units); higher = less sensitive
Method in brief: (§1)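 Leukemia cells adapted to each medium were seeded in 1536-well plates (500 or 1000 cells/well). They were dosed with library compounds in DMSO at 11 threefold doses, 47 μM to 0.79 nM, for 48 h at 37°C. CellTiter-Glo One luminescence was normalised per plate to DMSO and cell-free wells. Area under the curve was integrated by trapezoidal rule over log10 doses on a four-parameter log-logistic fit; curves exceeding full viability were scaled and curves failing quality control removed.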

SEM cells [2] = assay: as above
Method in brief: as §1

P12-Ichikawa [3] = assay: as above
Method in brief: as §1

NOMO1 [4] = assay: cell viability relative to DMSO control; higher = less cytotoxic
Method in brief: (§2)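 Viability, reported as a per-plate percentage of DMSO wells with cell-free wells as background, came from CellTiter-Glo One luminescence. Reading took place after 48 h at 37°C. Before that, NOMO1 or SEM (500 cells/well) or P12-Ichikawa (1000 cells/well) leukemia cells, adapted for at least four passages in each medium, were seeded in 1536-well plates (5 μl) and pin-dosed with library compounds in DMSO, 47 μM to 0.79 nM over 11 threefold points.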

SEM cells [5] = assay: as above
Method in brief: as §2

P12-Ichikawa [6] = assay: as above
Method in brief: as §2

CN(C)CC[C@H](c1ccc(Cl)cc1)c1ccccn1
AUC of viability dose-response curve
Details | NOMO1 [1] | P12-Ichikawa [3] | SEM cells [2]
HPLM + 10% dialyzed FBS | 378 | 413 | 376
RPMI 5 mM glucose + 10% FBS | 382 | 388 | 438
RPMI 5 mM glucose + 10% dialyzed FBS | 412 | 379 | 414

cell viability [%]
Details | NOMO1 [4] | P12-Ichikawa [6] | SEM cells [5]
HPLM + 10% dialyzed FBS, 0.000781 µM | 70.4 | 83.7 | 70.8
HPLM + 10% dialyzed FBS, 0.00234 µM | 74 | 78.9 | 72.6
HPLM + 10% dialyzed FBS, 0.00702 µM | 78.8 | 84.2 | 79.4
HPLM + 10% dialyzed FBS, 0.0211 µM | 77.9 | 84.8 | 78.8
HPLM + 10% dialyzed FBS, 0.0632 µM | 75.7 | 90.7 | 86.1
HPLM + 10% dialyzed FBS, 0.19 µM | 77.9 | 90.3 | 73.7
HPLM + 10% dialyzed FBS, 0.569 µM | 88.3 | 85.8 | 82.2
HPLM + 10% dialyzed FBS, 1.71 µM | 79.7 | 90.9 | 75.2
HPLM + 10% dialyzed FBS, 5.12 µM | 81 | 87.1 | 89.5
HPLM + 10% dialyzed FBS, 15.4 µM | 78.8 | 86 | 83.8
HPLM + 10% dialyzed FBS, 46.1 µM | 87.1 | 89.7 | 72.3
RPMI 5 mM glucose + 10% FBS, 0.000781 µM | 75 | 76.9 | 80.6
RPMI 5 mM glucose + 10% FBS, 0.00234 µM | 76.5 | 78 | 74.3
RPMI 5 mM glucose + 10% FBS, 0.00702 µM | 77.1 | 75.6 | 91
RPMI 5 mM glucose + 10% FBS, 0.0211 µM | 80.3 | 78.9 | 92.4
RPMI 5 mM glucose + 10% FBS, 0.0632 µM | 81.4 | 80.8 | 88.6
RPMI 5 mM glucose + 10% FBS, 0.19 µM | 81.2 | 80.8 | 95.3
RPMI 5 mM glucose + 10% FBS, 0.569 µM | 80.7 | 90.4 | 100
RPMI 5 mM glucose + 10% FBS, 1.71 µM | 79.6 | 85.2 | 87.2
RPMI 5 mM glucose + 10% FBS, 5.12 µM | 83.2 | 84.1 | 101
RPMI 5 mM glucose + 10% FBS, 15.4 µM | 79.9 | 81.2 | 92.7
RPMI 5 mM glucose + 10% FBS, 46.1 µM | 83.7 | 82.3 | 101
RPMI 5 mM glucose + 10% dialyzed FBS, 0.000781 µM | 74 | 69.9 | 78.9
RPMI 5 mM glucose + 10% dialyzed FBS, 0.00234 µM | 88.2 | 81.6 | 83.4
RPMI 5 mM glucose + 10% dialyzed FBS, 0.00702 µM | 83.1 | 73.6 | 82.4
RPMI 5 mM glucose + 10% dialyzed FBS, 0.0211 µM | 85.9 | 83.9 | 86
RPMI 5 mM glucose + 10% dialyzed FBS, 0.0632 µM | 81.5 | 86.2 | 87.1
RPMI 5 mM glucose + 10% dialyzed FBS, 0.19 µM | 86.5 | 80.9 | 95.4
RPMI 5 mM glucose + 10% dialyzed FBS, 0.569 µM | 95.7 | 78.1 | 80.5
RPMI 5 mM glucose + 10% dialyzed FBS, 1.71 µM | 89.5 | 78.8 | 87.3
RPMI 5 mM glucose + 10% dialyzed FBS, 5.12 µM | 89.5 | 76.9 | 104
RPMI 5 mM glucose + 10% dialyzed FBS, 15.4 µM | 91 | 82.3 | 93.2
RPMI 5 mM glucose + 10% dialyzed FBS, 46.1 µM | 82.8 | 77.5 | 75.1
